According to patent US10487068B2, “Pyridazine derivatives as RORc modulators” (Genentech, Inc., priority 2015, dated 2019):

The compounds below were run against T1, RORc ligand binding domain (Homo sapiens, UniProt P51449) (assay: In Vitro RORc Ligand Binding Assay). Settings: RORc IC50, radioligand 25-[3H]hydroxycholesterol 6 nM; 0.6 ug/mL RORc receptor; 3 h at 25° C.
T1 sequence (P51449 269-508 limits assumed): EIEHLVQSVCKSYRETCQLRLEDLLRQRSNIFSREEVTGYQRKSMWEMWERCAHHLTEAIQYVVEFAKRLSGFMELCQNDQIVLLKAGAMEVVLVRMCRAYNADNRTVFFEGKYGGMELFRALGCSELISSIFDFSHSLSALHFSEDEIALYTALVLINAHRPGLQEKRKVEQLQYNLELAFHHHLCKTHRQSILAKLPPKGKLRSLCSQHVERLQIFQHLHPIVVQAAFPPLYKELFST

Row | SMILES | IC50 [µM]
1 | Cc1nnc(-c2cncc([C@@]34CC[C@@H](c5cc(-c6c(F)cccc6F)nnc53)C4(C)C)n2)o1 [Example 35, 2-(6-((5R,8S)-3-(2,6-difluorophenyl)-9,9-dimethyl-5,6,7,8-tetrahydro-5,8-methanocinnolin-8-yl)pyrazin-2-yl)-5-methyl-1,3,4-oxadiazole] | 0.0217
2 | COCCNC(=O)c1cncc([C@@]23CC[C@@H](c4cc(-c5c(F)cccc5F)nnc42)C3(C)C)n1 [Example 36, 6-((5R,8S)-3-(2,6-difluorophenyl)-9,9-dimethyl-5,6,7,8-tetrahydro-5,8-methanocinnolin-8-yl)-N-(2-methoxyethyl)pyrazine-2-carboxamide] | 0.0371
3 | CC1(C)[C@H]2CC[C@]1(c1cccc(C(=O)N3CCOCC3)n1)c1nnc(-c3c(F)cccc3F)cc12 [Example 37, (6-((5R,8S)-3-(2,6-difluorophenyl)-9,9-dimethyl-5,6,7,8-tetrahydro-5,8-methanocinnolin-8-yl)pyridin-2-yl)(morpholino)methanone] | 0.0482
4 | CN(CCO)C(=O)c1cccc([C@@]23CC[C@@H](c4cc(-c5c(F)cccc5F)nnc42)C3(C)C)n1 [Example 38, 6-((5R,8S)-3-(2,6-difluorophenyl)-9,9-dimethyl-5,6,7,8-tetrahydro-5,8-methanocinnolin-8-yl)-N-(2-hydroxyethyl)-N-methylpicolinamide] | 0.0377
5 | COCCNC(=O)c1cccc([C@@]23CC[C@@H](c4cc(-c5c(F)cccc5F)nnc42)C3(C)C)n1 [Example 39, 6-((5R,8S)-3-(2,6-difluorophenyl)-9,9-dimethyl-5,6,7,8-tetrahydro-5,8-methanocinnolin-8-yl)-N-(2-methoxyethyl)picolinamide] | 0.0116
6 | CC1(NC(=O)c2cccc([C@@]34CC[C@@H](c5cc(-c6c(F)cccc6F)nnc53)C4(C)C)n2)CC1 [Example 40, 6-((5R,8S)-3-(2,6-difluorophenyl)-9,9-dimethyl-5,6,7,8-tetrahydro-5,8-methanocinnolin-8-yl)-N-(1-methylcyclopropyl)picolinamide] | 0.0099
7 | CC1(C)[C@H]2CC[C@]1(c1cncc(C(=O)NCCO)n1)c1nnc(-c3c(F)cccc3F)cc12 [Example 41, 6-((5R,8S)-3-(2,6-difluorophenyl)-9,9-dimethyl-5,6,7,8-tetrahydro-5,8-methanocinnolin-8-yl)-N-(2-hydroxyethyl)pyrazine-2-carboxamide] | 0.0256
8 | CC1(C)[C@H]2CC[C@]1(c1cc(C#N)ccn1)c1nnc(-c3c(F)cccc3F)cc12 [Example 42] | 0.0121
9 | CC1(C)[C@H]2CC[C@]1(c1nccc(C#N)n1)c1nnc(-c3c(F)cccc3F)cc12 [Example 43, 2-((5R,8R)-3-(2,6-difluorophenyl)-9,9-dimethyl-5,6,7,8-tetrahydro-5,8-methanocinnolin-8-yl)pyrimidine-4-carbonitrile] | 0.027
10 | CONC(=O)c1cccc([C@@]23CC[C@@H](c4cc(-c5c(F)cccc5F)nnc42)C3(C)C)n1 [Example 44, 6-((5R,8S)-3-(2,6-difluorophenyl)-9,9-dimethyl-5,6,7,8-tetrahydro-5,8-methanocinnolin-8-yl)-N-methoxypicolinamide] | 0.0149
11 | CC1(C)[C@H]2CC[C@]1(c1cccc(C(N)=O)n1)c1nnc(-c3c(F)cccc3F)cc12 [Example 45, 6-((5R,8S)-3-(2,6-difluorophenyl)-9,9-dimethyl-5,6,7,8-tetrahydro-5,8-methanocinnolin-8-yl)picolinamide] | 0.00866
12 | CC1(C)[C@H]2CC[C@]1(c1nccc(C(N)=O)n1)c1nnc(-c3c(F)cccc3F)cc12 [Example 46, 2-((5R,8R)-3-(2,6-difluorophenyl)-9,9-dimethyl-5,6,7,8-tetrahydro-5,8-methanocinnolin-8-yl)pyrimidine-4-carboxamide] | 0.0432
13 | CNC(=O)c1ccnc([C@@]23CC[C@@H](c4cc(-c5c(F)cccc5F)nnc42)C3(C)C)n1 [Example 47, 2-((5R,8R)-3-(2,6-difluorophenyl)-9,9-dimethyl-5,6,7,8-tetrahydro-5,8-methanocinnolin-8-yl)-N-methylpyrimidine-4-carboxamide] | 0.0583
14 | CC1(C)[C@@H]2CC[C@@]1(c1cccc(C(N)=O)n1)c1nnc(-c3c(F)cccc3F)cc12 [Example 48, 6-((5S,8R)-3-(2,6-difluorophenyl)-9,9-dimethyl-5,6,7,8-tetrahydro-5,8-methanocinnolin-8-yl)picolinamide] | 0.0156
15 | C[C@@H](O)CNC(=O)c1cncc([C@@]23CC[C@@H](c4cc(-c5c(F)cccc5F)nnc42)C3(C)C)n1 [Example 49, 6-((5R,8S)-3-(2,6-difluorophenyl)-9,9-dimethyl-5,6,7,8-tetrahydro-5,8-methanocinnolin-8-yl)-N-((R)-2-hydroxypropyl)pyrazine-2-carboxamide] | 0.0409
16 | C[C@H](O)CNC(=O)c1cncc([C@@]23CC[C@@H](c4cc(-c5c(F)cccc5F)nnc42)C3(C)C)n1 [Example 50, 6-((5R,8S)-3-(2,6-difluorophenyl)-9,9-dimethyl-5,6,7,8-tetrahydro-5,8-methanocinnolin-8-yl)-N-((S)-2-hydroxypropyl)pyrazine-2-carboxamide] | 0.0317

Row | SMILES | IC50 [µM]
17 | C[C@H](CO)NC(=O)c1cncc([C@@]23CC[C@@H](c4cc(-c5c(F)cccc5F)nnc42)C3(C)C)n1 [Example 51, 6-((5R,8S)-3-(2,6-difluorophenyl)-9,9-dimethyl-5,6,7,8-tetrahydro-5,8-methanocinnolin-8-yl)-N-((R)-1-hydroxypropan-2-yl)pyrazine-2-carboxamide] | 0.059
18 | C[C@@H](CO)NC(=O)c1cncc([C@@]23CC[C@@H](c4cc(-c5c(F)cccc5F)nnc42)C3(C)C)n1 [Example 52, 6-((5R,8S)-3-(2,6-difluorophenyl)-9,9-dimethyl-5,6,7,8-tetrahydro-5,8-methanocinnolin-8-yl)-N-((S)-1-hydroxypropan-2-yl)pyrazine-2-carboxamide] | 0.038
19 | CC1(C)[C@H]2CC[C@]1(c1cc(C(=O)O)ccn1)c1nnc(-c3c(F)cccc3F)cc12 [Example 53] | 0.475
20 | C[C@H](CO)NC(=O)c1cccc([C@@]23CC[C@@H](c4cc(-c5c(F)cccc5F)nnc42)C3(C)C)n1 [Example 54, 6-((5R,8S)-3-(2,6-difluorophenyl)-9,9-dimethyl-5,6,7,8-tetrahydro-5,8-methanocinnolin-8-yl)-N-((R)-1-hydroxypropan-2-yl)picolinamide] | 0.0295
21 | C[C@@H](CO)NC(=O)c1cccc([C@@]23CC[C@@H](c4cc(-c5c(F)cccc5F)nnc42)C3(C)C)n1 [Example 55, 6-((5R,8S)-3-(2,6-difluorophenyl)-9,9-dimethyl-5,6,7,8-tetrahydro-5,8-methanocinnolin-8-yl)-N-((S)-1-hydroxypropan-2-yl)picolinamide] | 0.0214
22 | CC1(C)[C@H]2CC[C@]1(c1cccc(C(=O)NCCO)n1)c1nnc(-c3c(F)cccc3F)cc12 [Example 56, 6-((5R,8S)-3-(2,6-difluorophenyl)-9,9-dimethyl-5,6,7,8-tetrahydro-5,8-methanocinnolin-8-yl)-N-(2-hydroxyethyl)picolinamide] | 0.0355
23 | CC1(C)[C@H]2CC[C@]1(c1cccc(C(=O)N3CCS(=O)(=O)CC3)n1)c1nnc(-c3c(F)cccc3F)cc12 [Example 57, (6-((5R,8S)-3-(2,6-difluorophenyl)-9,9-dimethyl-5,6,7,8-tetrahydro-5,8-methanocinnolin-8-yl)pyridin-2-yl)(1,1-dioxidothiomorpholino)methanone] | 0.0711
24 | CC1(C)[C@@H]2CC[C@@]1(c1cncc(C(N)=O)n1)c1nnc(-c3c(F)cccc3F)cc12 [Example 58, 6-((5S,8R)-3-(2,6-difluorophenyl)-9,9-dimethyl-5,6,7,8-tetrahydro-5,8-methanocinnolin-8-yl)pyrazine-2-carboxamide] | 0.0314
25 | CC1(C)[C@@H]2CC[C@@]1(c1cccc(C#N)n1)c1nnc(-c3c(F)cccc3F)cc12 [Example 59, 6-((5S,8R)-3-(2,6-difluorophenyl)-9,9-dimethyl-5,6,7,8-tetrahydro-5,8-methanocinnolin-8-yl)picolinonitrile] | 0.0159
26 | CC1(C)[C@H]2CC[C@]1(c1cccc(C(=O)NC3COC3)n1)c1nnc(-c3c(F)cccc3F)cc12 [Example 60, 6-((5R,8S)-3-(2,6-difluorophenyl)-9,9-dimethyl-5,6,7,8-tetrahydro-5,8-methanocinnolin-8-yl)-N-(oxetan-3-yl)picolinamide] | 0.0136
27 | C[C@H](O)CNC(=O)c1cccc([C@@]23CC[C@@H](c4cc(-c5c(F)cccc5F)nnc42)C3(C)C)n1 [Example 61, 6-((5R,8S)-3-(2,6-difluorophenyl)-9,9-dimethyl-5,6,7,8-tetrahydro-5,8-methanocinnolin-8-yl)-N-((S)-2-hydroxypropyl)picolinamide] | 0.0348
28 | C[C@@H](O)CNC(=O)c1cccc([C@@]23CC[C@@H](c4cc(-c5c(F)cccc5F)nnc42)C3(C)C)n1 [Example 62, 6-((5R,8S)-3-(2,6-difluorophenyl)-9,9-dimethyl-5,6,7,8-tetrahydro-5,8-methanocinnolin-8-yl)-N-((R)-2-hydroxypropyl)picolinamide] | 0.0288
29 | CC(C)(O)CNC(=O)c1cccc([C@@]23CC[C@@H](c4cc(-c5c(F)cccc5F)nnc42)C3(C)C)n1 [Example 63, 6-((5R,8S)-3-(2,6-difluorophenyl)-9,9-dimethyl-5,6,7,8-tetrahydro-5,8-methanocinnolin-8-yl)-N-(2-hydroxy-2-methylpropyl)picolinamide] | 0.0531
30 | CC1(C)[C@H]2CC[C@]1(c1cc(C(=O)NCCO)ccn1)c1nnc(-c3c(F)cccc3F)cc12 [Example 64] | 0.0954
31 | CC1(C)[C@H]2CC[C@]1(c1cc(C(=O)NC3COC3)ccn1)c1nnc(-c3c(F)cccc3F)cc12 [Example 65] | 0.104
32 | Cc1nnc(-c2ccnc([C@@]34CC[C@@H](c5cc(-c6c(F)cccc6F)nnc53)C4(C)C)c2)o1 [Example 66] | 0.161
